The text below walks through data of patent US7776847B2, “Benzisothiazoles useful for treating or preventing HCV infection” (priority 2005, dated 2010).

The test system of the assay is HCV replicon. Nature of the assay: HCV replicon luciferase reporter assay. It counts as cell-based. To be noted: Table 5, read-out: IC50. The method, boiled down:
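IC50 is the compound amount halving luciferase signal, measured after 24–48 h treatment at various concentrations. Cells carrying the HCV replicon were pre-incubated 24 h at 37° C, 5% CO2 after seeding at about 5,000–7,500 cells/well before dosing.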
For orientation: A replicon is a self-replicating genome or part of one, used to study replication in cells.

Molecules are shown by their SMILES. Where two headings read alike, the source gives them in different places. A value given as a limit tells only on which side of the number the result lay.

With `CCCCc1ccc(CN(CCCNc2nsc3ccccc23)C(=O)c2ccccn2)cc1` [Compound 293, N-(3-(benzo[d]isothiazol-3-ylamino)propyl)-N-(4-butylbenzyl)picolinamide], the IC50 (Hepatitis C virus) is less than 5 µM. As for `Brc1cccc(CNCCCNc2nsc3ccccc23)c1` [Compound 299, N^1-(benzo[d]isothiazol-3-yl)-N^3-(3-bromobenzyl)propane-1,3-diamine], under “Hepatitis C virus”, the concentration for half-maximal inhibition (IC50) was less than 5 µM. The same measure, in the same setting: the result for `CCCOc1ccc(F)cc1-c1ccc(C(=O)NCCNc2nsc3ccccc23)cc1` [Compound 367, N-(2-(benzo[d]isothiazol-3-ylamino)ethyl)-5′-fluoro-2′-propoxybiphenyl-4-carboxamide] reads less than 5 µM; that for `O=C(NCCNc1nsc2ccccc12)c1cccc(-c2cccc3cccnc23)c1` [Compound 374, N-(2-(benzo[d]isothiazol-3-ylamino)ethyl)-3-(quinolin-8-yl)benzamide], less than 5 µM. As to `CC(C)Oc1ccccc1-c1cccc(C(=O)NCCCNc2nsc3ccccc23)c1` [Compound 376, N-(3-(benzo[d]isothiazol-3-ylamino)propyl)-6′-isopropoxybiphenyl-3-carboxamide], the IC50 (Hepatitis C virus) is less than 5 µM. On the same count and under the same terms, the result for `Brc1ccc(CNCCCNc2nsc3ccccc23)cc1` [Compound 287, N^1-(benzo[d]isothiazol-3-yl)-N^3-(4-bromobenzyl)propane-1,3-diamine] reads less than 5 µM; that for `COc1cccc2cc(C(=O)NCCCNc3nsc4ccccc34)oc12` [Compound 435, N-(3-(benzo[d]isothiazol-3-ylamino)propyl)-7-methoxybenzofuran-2-carboxamide], less than 5 µM; that for `O=C(NCCNc1nsc2ccccc12)c1ccc(-c2ccccc2O)cc1` [Compound 385, N-(2-(benzo[d]isothiazol-3-ylamino)ethyl)-2′-hydroxybiphenyl-4-carboxamide], less than 5 µM. Still for that read-out and setting: the figure for `O=C(NCCNc1nsc2ccccc12)c1ccc2ccccc2n1` [Entry 79, N-(2-(Benzo[d]isothiazol-3-ylamino)ethyl)quinoline-2-carboxamide] is more than 5 µM. As to `O=C(NCCCNc1nsc2ccccc12)c1cc2ccc([N+](=O)[O-])cc2o1` [Compound 439, N-(3-(benzo[d]isothiazol-3-ylamino)propyl)-6-nitrobenzofuran-2-carboxamide], the IC50 (Hepatitis C virus) was less than 5 µM. Turning to `O=C(NCCCNc1nsc2ccccc12)c1cccc(C2=CCNCC2)c1` [Compound 394, N-(3-(benzo[d]isothiazol-3-ylamino)propyl)-3-(1,2,3,6-tetrahydropyridin-4-yl)benzamide], the IC50 (Hepatitis C virus) is less than 5 µM. As for `CCCCOc1cc(C(=O)NCCNc2nsc3ccc(NCCC)cc23)ccc1OC` [Compound 310, 3-butoxy-4-methoxy-N-(2-(5-(propylamino)benzo[d]isothiazol-3-ylamino)ethyl)benzamide], the IC50 (Hepatitis C virus) was less than 5 µM. Still for that read-out and setting: the figure for `Oc1ccc(Br)cc1CNCCCNc1nsc2ccccc12` [Compound 303, 2-((3-(benzo[d]isothiazol-3-ylamino)propylamino)methyl)-4-bromophenol] is less than 5 µM; for `COC(=O)c1ccc(-c2ccc(S(=O)(=O)NCCCNc3nsc4ccccc34)cc2)cc1` [Compound 334, methyl 4′-(N-(3-(benzo[d]isothiazol-3-ylamino)propyl)sulfamoyl)biphenyl-4-carboxylate] it is less than 5 µM. Still for that read-out and setting: the figure for `CCCNC(=O)c1cccc(C(=O)NCCNc2nsc3ccccc23)c1` [Compound 428, N^1-(2-(benzo[d]isothiazol-3-ylamino)ethyl)-N^3-propylisophthalamide] is less than 5 µM; for `O=C1NC(CNc2nsc3ccccc23)C(=O)N1c1ccc(I)cc1` (centres unmarked) [Compound 311, 5-((benzo[d]isothiazol-3-ylamino)methyl)-3-(4-iodophenyl)imidazolidine-2,4-dione] it is more than 5 µM. Turning to `O=C(NCCCNc1nsc2ccccc12)c1ccc(Br)cc1` [Compound 289, N-(3-(benzo[d]isothiazol-3-ylamino)propyl)-4-bromobenzamide], the IC50 (Hepatitis C virus) is less than 5 µM.

On to `COc1cc(CNCCCNc2nsc3ccccc23)c(OCc2ccccc2)cc1OC` [Compound 327, N^1-(benzo[d]isothiazol-3-yl)-N^3-(2-(benzyloxy)-4,5-dimethoxybenzyl)propane-1,3-diamine], for which the IC50 (Hepatitis C virus) is less than 5 µM. The same measure, in the same setting: the figure for `COc1ccccc1-c1ccc(NC(=O)NCCCNc2nsc3ccccc23)cc1` [Compound 395, 1-(3-(benzo[d]isothiazol-3-ylamino)propyl)-3-(2′-methoxybiphenyl-4-yl)urea] is less than 5 µM; for `CCCCc1ccc(C(=O)NCCNc2nsc3ccc(Cl)cc23)cc1` [Compound 421, 4-butyl-N-(2-(5-chlorobenzo[d]isothiazol-3-ylamino)ethyl)benzamide] it is less than 5 µM. The same measure, in the same setting: the result for `O=C(NCCCNc1nsc2ccccc12)c1ccc(O)nc1` [Compound 451, N-(3-(benzo[d]isothiazol-3-ylamino)propyl)-6-hydroxynicotinamide] reads more than 5 µM; that for `O=C(NCCNc1nsc2ccccc12)c1c(F)cccc1C(F)(F)F` [Compound 358, N-(2-(benzo[d]isothiazol-3-ylamino)ethyl)-2-fluoro-6-(trifluoromethyl)benzamide], more than 5 µM; that for `O=C(NCCNc1nsc2ccccc12)c1cc(F)ccc1C(F)(F)F` [Compound 352, N-(2-(benzo[d]isothiazol-3-ylamino)ethyl)-5-fluoro-2-(trifluoromethyl)benzamide], more than 5 µM.

As for `O=C(O)COc1ccc(C(=O)NCCCNc2nsc3ccccc23)cc1` [Entry 238, 2-(4-(3-(benzo[d]isothiazol-3-ylamino)propylcarbamoyl)phenoxy) acetic acid], the IC50 (Hepatitis C virus) is more than 5 µM. As to `CCCC(=O)Nc1ccc2sc(C(=O)NCCCNc3nsc4ccccc34)cc2c1` [Compound 457, N-(3-(benzo[d]isothiazol-3-ylamino)propyl)-5-butyramidobenzo[b]thiophene-2-carboxamide], the IC50 (Hepatitis C virus) is less than 5 µM.

On to `CC(C)(C)NS(=O)(=O)c1cccc2snc(NCCCN)c12` [Compound 506, 3-(3-aminopropylamino)-N-tert-butylbenzo[d]isothiazole-4-sulfonamide], for which the IC50 was more than 5 µM.

With `COc1ccc(-c2ccccc2CNCCCNc2nsc3ccccc23)cc1` [Compound 312, N^1-(benzo[d]isothiazol-3-yl)-N^3-((4′-methoxybiphenyl-2-yl)methyl)propane-1,3-diamine], for the setting “Hepatitis C virus”, the IC50 was less than 5 µM.

As to `COc1ccc(-c2ccc(CNCCCNc3nsc4nccnc34)cc2)cc1` [Entry 241, N^1-(isothiazolo[5,4-b]pyrazin-3-yl)-N^3-((4′-methoxybiphenyl-4-yl)methyl)propane-1,3-diamine], where the note is “Hepatitis C virus”, the IC50 is less than 5 µM. On the same count and under the same terms, the result for `COc1ccc(-c2ccc(CN(CCCNc3nsc4ccccc34)C(=O)CC#N)cc2)cc1` [Compound 319, N-(3-(benzo[d]isothiazol-3-ylamino)propyl)-2-cyano-N-((4′-methoxybiphenyl-4-yl)methyl)acetamide] reads less than 5 µM.

Usually IC50 stands for the point on the concentration scale where inhibition reaches its midpoint.
